Earlier results as cited in patent publication US20200018753A1, “NON-INVASIVE BIOMARKER TO IDENTIFY SUBJECT AT RISK OF PRETERM DELIVERY” (NYU Winthrop Hospital, priority 2012, published 2020).

Test system: Prostaglandin D2 formation
Conditions: IL-1β-stimulated SK-N-SH neuronal cells; presumably by inhibiting cyclooxygenase (COX), especially COX-2

Oc1ccc(C=Cc2cc(O)cc(O)c2)cc1 [Resveratrol]
formation of Prostaglandin D2: reduce formation of Prostaglandin D2
